Measured values as given in patent US20230026437A1, “BACTERIA-ASSOCIATED VOLATILE ORGANIC COMPOUNDS” (THE STATE OF ISRAEL, MINISTRY OF AGRICULTURE & RURAL …, priority 2019, published 2023).
Entries after “also recorded” stand apart in the source; their conditions may differ.

Key:
Arabidopsis thaliana = test: Effect of 2,3-Hexanedione (C3) on A. thaliana growth, two-compartment plate; assay type: in vivo; details: 2 weeks of exposure
Experimental: Experimental set up for evaluation of 2,3-Hexanedione (C3) effect on Arabidopsis thaliana. Plant material and seed germination. A. thaliana (Ecotype Col-1) seeds were obtained from ARO Volcani center. The seeds were surface sterilized thrice with sterile distilled water and kept at 4° C. till 48 hours for stratification in dark on moist filter paper in petri plate. After two days of stratification the seeds were placed for germination on Murashige and Skoog (MS) medium with vitamins, 3% sucrose (30 g/1), and 0.03% phytagel (pH 5.7) for 3 days at 23° C. Effect of 2,3-Hexanedione (C3) on A. thaliana growth. Effect of 2,3-Hexanedione on A. thaliana development was evaluated in-vitro conditions in a two-compartment plate assay. Uniformly germinated seeds (5) were transplanted on MS medium in one side of compartment plate and another compartment was used to place the tested compound C3 similarly with other experiments. […] The control plants were maintained without any compound in two compartment petri plates. The plants were grown under 14-hour day/10-hour night cycles at 23° C. for 2 weeks and growth parameters were observed.

Macrophomina = test: Effect of C3 on fungal morphology (actively growing mycelium); assay type: cell-based, Macrophomina phaseolina; details: C3 exposure, plate assay
[1] = system: Macrophomina phaseolina, Rhizoctonia solani, Pythium aphanidermatum and Sclerotinia sclerotiorum; test: Antifungal activity of synthetic VOCs, plate assay; assay type: cell-based
Experimental: Antifungal activity of synthetic VOCs. The GC-MS identified VOCs produced by NYG5 were screened through literature for their any biological activity and the novel compound which were not tested so far were purchased as pure standard compound of the most representative VOCs from Hollan Moran Ltd., Israel. The pure synthetic compounds were tested against four different fungal pathogens (Macrophomina phaseolina, Rhizoctonia solani, […]) in small plastic petri plates. A freshly growing mycelial agar bid (4 mm) were placed in the center of PDA medium and one sterile paper disc (10 mm) were kept on the lid of the plate. After fungal inoculation, the tested compounds (10 μl for each) were placed on sterile filter disc and plates were double sealed with parafilm in inverted position having mycelium disc on the top side of the plate to check the direct effect of volatiles on mycelial growth. Three individual replicates were maintained for each treatment including control having sterile filter disc and solvent (70% ethanol) in which compounds were diluted. […] The plates were incubated at 25° C. and radial growth of fungal mycelial was measured at day interval until 3 days.

PR1 gene = test: Effect of C3 on PR gene expression in A. thaliana (qRT-PCR); assay type: in vivo, Arabidopsis thaliana; details: leaves, 7 days of exposure, no direct contact
Source text: (§1) Effect of 2,3-Hexanedione (C3) on PR gene expression in A. thaliana. An individual experiment was designed similarly as described above to check the effect of 2,3-Hexanedione on PR gene induction in A. thaliana. The plants were exposed with 2,3-Hexanedione in a two compartment plates for one week. After one week, leaves from individual plants of each replicate were pooled separately for RNA isolation. Total RNA was isolated from the leaf tissue of plant using RNA isolation kit (Nucleo spin RNA Plant, MACHEREY-NAGEL) according the manufacturer's instruction. Before starting the protocol, leaves were ground under liquid N2 and 100 mg of grinded tissue was used for RNA isolation. RNA quantification was done using Qubit analyzer. Purified RNA was used for cDNA synthesis using first strand Invitrogen cDNA synthesis kit according the manufacturer's instructions with […] of RNA. Synthesized cDNA was diluted to 1000 times and 10 ul aliquots were stored for gene expression analysis. The relative gene expression level of PR1, PR2, PR5 and Actin (as internal control) were quantified for C3 exposed and control plants. For qRT PCR a 20 ul reaction was programmed at 95° C. denaturation for 1 min, followed by 40 cycles of amplification at 95° C. for 5s, 60° C. for 30s, and 72° C. for 30s.

PR2 gene = test: as above; assay type: in vivo, Arabidopsis thaliana; details: leaves, 7 days of exposure, no direct contact
Source text: as §1

PR5 = test: as above; assay type: in vivo, Arabidopsis thaliana; details: leaves, 7 days of exposure, no direct contact
Source text: as §1

N. tabacum = test: Effect of C3 on tobacco seedlings growth, two-compartment plate; assay type: in vivo, Nicotiana tabacum; details: 0.01 and 0.05 ppm, 14 days of growth
Source text: Seeds of N. tabacum were placed on MS agar media in a two-compartment plate with C3 in different concentrations on a sterile paper disk on the other half of the plate without direct contact between the compartments. In the control treatments, a sterile disk with ethanol was used.

[2] = system: Fusarium oxysporum f sp. Cubense; test: C3 against Fusarium oxysporum f sp. Cubense in-vitro; assay type: cell-based
[3] = system: Fusarium oxysporum spores; test: Effect of 2,3-Hexanedione (C3) on fungal spores in liquid; assay type: cell-based
Experimental: Effect of 2, 3-Hexanedione (C3) on fungal spores in liquid. To test the effect of C3 on spore germination, fungal spores were harvested after 3 days growth of Fusarium oxysporum in Potato Dextrose Broth medium with continuous shaking at 25° C. To collect the spores, 3 days old grown mycelial in broth medium was filtered through sterilized glass wools and filtrate was centrifuged at 4000 rpm. The supernatant was discarded, and pellet was suspended in sterilized water to a dilution of 10^6 (spores/ml) and counted through hemocytometer. Spore inhibition test was performed in 1.5 ml Eppendorf tube having 100 μl of 5×10^5 spores and mixed with a final concentration of 1 ppm, 10 ppm and 100 ppm of C3 compound. The tubes were tightly closed and sealed with parafilm and incubated at 25° C. Spore germination was observed under compound microscope by placing 20 μl of solution droplet from control and treatment on glass slide. The germination was reconfirmed by growing the 20 μl of solution from tube on PDA simultaneously to check the mycelial growth. All experiments had three individual replicates and repeated twice having identical conditions.

[4] = system: Meloidogyne javanica larvae; test: In-vitro nematicidal activity of 2,3-Hexanedione (C3), two-compartment plate; assay type: in vivo; details: 2 days of exposure, no direct contact
Source text: In-vitro nematicidal activity of 2, 3-Hexanedione (C3). Nematicidal efficacy of 2,3-Hexanedione had been tested against Meloidogyne javanica larvae. M. javanica eggs were extracted from the infected root of tomato Lycopersicon esculentum using standard protocol. The experiment was set up in a two-compartment plate to test the nematicidal activity of C3 compound against M. javanica larvae. One small glass vial was placed in one-half of compartment having 300 M. javanica larvae in 1000 of 0.001 M IVIES and sterile filter disc were kept in another compartment. The discs were spot with 10 μl of different concentration (0.05 and 0.5 ppm) of C3 compound and double sealed with parafilm. Each treatment had three independent replicates with control (without any compound only sterile disc). After 2 days of incubation M. javanica were carefully washed through 30 μm sieve and allowed to pass the sieve for 3 hours. All incubations were performed in the dark at 25±1° C. Survived M. javanica were counted under microscope.

SMILES	effect on plant growth parameters (Arabidopsis thaliana; 0.005 ppm and 0.5 ppm)	effect on plant growth (Arabidopsis thaliana; 0.05 ppm)	effect on actively-growing mycelia (Macrophomina)	effect on fungi ([1]; 0.5 ppm)	effect of volatile exposure on all tested fungal pathogens ([1]; volatile exposure)	induction of PR1 gene (PR1 gene) [fold]	upregulation of PR2 gene transcript (PR2 gene) [fold]	PR5 at transcriptional level (PR5)	plant biomass (N. tabacum)	primary roots length (N. tabacum)	effect against the fungus ([2]; 50 ppm)	effect against the fungus ([2]; 200 ppm)	germination of spores ([3]; 1 ppm in liquid, at least for 3 days)	growth of treated spores on PDA medium ([3]; C3-treated spores plated on PDA)	larval viability ([4]; 0.05 ppm)	nematicidal activity ([4]; 0.5 ppm) [%]	effect on mycelial growth ([1]; higher concentrations, 100 and 500 ppm)
CCCC(=O)C(C)=O [Compound C3, 2,3-Hexanedione]	did not show any effect	enhanced the growth; also recorded: significant increase	mycelium growth inhibition	lethal	fungicidal effect	3	5	no significant difference	significantly enhanced	longer	inhibitory effect	lethal effect	no germination	no growth was observed	significantly reduced	80	–
CC(=O)CCC(C)C [Compound C2, 5-Methyl-2-hexanone]	–	–	–	–	–	–	–	–	–	–	–	–	–	–	–	–	inhibitory effect
